Measurements published in ChEMBL document CHEMBL3992551, “Synthesis and evaluation of N-(benzofuran-5-yl)aromaticsulfonamide derivatives as novel HIF-1 inhibitors that possess anti-angiogenic potential” (Bioorg Med Chem, 2017).

What was measured:
[1] = system: MCF7; assay: Antiproliferative activity against human MCF7 cells after 72 hrs under hypoxic condition by MTT assay; type: functional, cell-based; details: MCF7, 72 h
[2] = system: MCF7; assay: Cytotoxicity against human MCF7 cells harboring HRE-driven luciferase gene; type: cell-based
[3] = system: MDA-MB-468; assay: Antiproliferative activity against human MDA-MB-468 cells after 72 hrs under hypoxic condition by MTT assay; type: functional, cell-based; details: MDA-MB-468, 72 h
[4] = molecular target: T1, Hypoxia-inducible factor 1-alpha (Homo sapiens, UniProt Q16665); assay: Inhibition of HIF-1alpha (unknown origin) transcriptional activity expressed in human MCF7 cells after 24 hrs under hypoxic condition by HRE luciferase reporter gene assay; type: cell-based
Target sequence in this assay (Q16665 whole entry): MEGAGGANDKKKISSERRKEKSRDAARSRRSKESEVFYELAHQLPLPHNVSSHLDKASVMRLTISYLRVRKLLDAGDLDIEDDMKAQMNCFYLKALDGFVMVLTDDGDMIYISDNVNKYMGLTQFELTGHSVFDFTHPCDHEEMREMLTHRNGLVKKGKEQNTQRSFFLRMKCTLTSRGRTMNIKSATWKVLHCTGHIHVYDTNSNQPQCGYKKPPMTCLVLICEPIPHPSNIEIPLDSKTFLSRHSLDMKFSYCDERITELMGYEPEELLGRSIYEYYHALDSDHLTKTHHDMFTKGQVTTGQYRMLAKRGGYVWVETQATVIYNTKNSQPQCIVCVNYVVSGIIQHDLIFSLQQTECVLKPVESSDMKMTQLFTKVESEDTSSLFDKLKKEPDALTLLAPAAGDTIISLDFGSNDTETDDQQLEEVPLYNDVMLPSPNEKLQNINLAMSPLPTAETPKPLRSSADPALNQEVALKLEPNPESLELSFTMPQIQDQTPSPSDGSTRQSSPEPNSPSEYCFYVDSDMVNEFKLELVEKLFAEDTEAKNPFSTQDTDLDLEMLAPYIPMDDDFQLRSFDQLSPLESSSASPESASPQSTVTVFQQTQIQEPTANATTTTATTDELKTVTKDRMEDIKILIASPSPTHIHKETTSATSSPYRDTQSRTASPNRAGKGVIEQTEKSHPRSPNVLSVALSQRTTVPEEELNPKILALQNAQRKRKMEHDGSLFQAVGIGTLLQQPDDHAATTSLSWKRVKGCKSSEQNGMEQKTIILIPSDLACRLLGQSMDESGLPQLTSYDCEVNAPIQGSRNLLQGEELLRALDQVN

[5] = system: MDA-MB-231; assay: Antiproliferative activity against human MDA-MB-231 cells after 72 hrs under hypoxic condition by MTT assay; type: functional, cell-based; details: MDA-MB-231, 72 h
[6] = system: HUVEC; assay: Anti-migratory activity against HUVEC assessed as inhibition of hypoxia-induced cell movement after 24 hrs by wound healing assay; type: functional, cell-based; details: Homo sapiens
[7] = system: HUVEC; assay: Cytotoxicity against HUVEC assessed as reduction in cell viability at 2.5 to 50 uM after 24 hrs by MTT assay; type: cell-based; details: human
[8] = molecular target: T1, Hypoxia-inducible factor 1-alpha; assay: Inhibition of HIF-1alpha transcriptional activity in human MCF7 cells assessed as reduction in VEGF mRNA level after 24 hrs under hypoxic condition by RT-PCR method; type: cell-based
Target sequence in this assay (Q16665 whole entry, looked up): as the sequence (Q16665 whole entry) above

[9] = system: HUVEC; assay: Anti-angiogenic activity against HUVEC assessed as inhibition of hypoxia-induced tube formation after 24 hrs by 2-dimensional matrigel assay; type: functional, cell-based; details: Homo sapiens
[10] = system: Chorioallantoic membrane; assay: Antiangiogenic activity in chicken chorioallantoic membrane assessed as inhibition of hypoxia-induced vessel formation after 3 days; type: functional; details: Gallus gallus
[11] = molecular target: T1, Hypoxia-inducible factor 1-alpha; assay: Inhibition of HIF-1alpha transcriptional activity in human MCF7 cells assessed as reduction in VEGF secretion after 24 hrs under hypoxic condition by ELISA; type: cell-based
[12] = system: MCF7; assay: Downregulation of HIF-1alpha mRNA expression level in human MCF7 cells after 24 hrs under hypoxic condition by RT-PCR method; type: functional, cell-based
[13] = system: MCF7; assay: Downregulation of HIF-1alpha protein expression level in human MCF7 cells after 24 hrs under hypoxic condition by Western blot method; type: functional, cell-based

Row | Compound | IC50 [1] [µM] | Activity [2] | IC50 [3] [µM] | IC50 [4] [µM] | IC50 [5] [µM] | inhibition [6] | Activity [7] | inhibition [8] | inhibition [9] | inhibition [10] | IC50 [11] [µM] | inhibition [11] | Activity [12] | Activity [13]
1 | CCOC(=O)c1oc2ccc(NS(=O)(=O)c3ccc(Cl)cc3)cc2c1C | 81.2 | Non-Toxic | 44 | 50 | 53.9 |  |  |  |  |  |  |  |  | 
2 | CCOC(=O)c1oc2ccc(NS(=O)(=O)c3cccc(C)c3)cc2c1C | 101 | Non-Toxic | 25.3 | 32.7 | 29.5 |  |  |  |  |  |  |  |  | 
3 | CCOC(=O)c1oc2ccc(NS(=O)(=O)c3cccc([N+](=O)[O-])c3)cc2c1C | 74.8 | Non-Toxic | 30.1 | 29.4 | 59.9 |  |  |  |  |  |  |  |  | 
4 | CCOC(=O)c1oc2ccc(NS(=O)(=O)c3cc(OC)ccc3OC)cc2c1C | 52.3 | Non-Toxic | 20.7 | 15.5 | 26.7 |  |  |  |  |  |  |  |  | 
5 | CCOC(=O)c1oc2ccc(NS(=O)(=O)c3ccc4ccccc4c3)cc2c1C | 20.8 | Non-Toxic | 15.7 | 22.6 | 21.6 |  |  |  |  |  |  |  |  | 
6 | CCOC(=O)c1oc2ccc(NS(=O)(=O)c3ccc([N+](=O)[O-])cc3)cc2c1C | 69.6 | Non-Toxic | 24 | 36.2 | 33.1 |  |  |  |  |  |  |  |  | 
7 | CCOC(=O)c1oc2ccc(NS(=O)(=O)c3ccc(C)cc3)cc2c1C | 53.9 | Non-Toxic | 24 | 45.4 | 25.2 |  |  |  |  |  |  |  |  | 
8 | CCOC(=O)c1oc2ccc(NS(=O)(=O)c3cccnc3)cc2c1C | > 200 | Non-Toxic | 62.9 | 34.1 | 141 |  |  |  |  |  |  |  |  | 
9 | CCOC(=O)c1oc2ccc(NS(=O)(=O)c3ccc(Br)cc3)cc2c1C | 56.5 | Non-Toxic | 26.4 | 29.9 | 31.1 |  |  |  |  |  |  |  |  | 
10 | CCOC(=O)c1oc2ccc(NS(=O)(=O)c3ccc(OC)c(OC)c3)cc2c1C | 52 | Non-Toxic | 20.5 | 12.5 | 35.4 | Dose-dependent effect | Non-Toxic | Dose-dependent effect | Dose-dependent effect | Dose-dependent effect | 18.8 | Dose-dependent effect | Dose-dependent effect | Dose-dependent effect
11 | CCOC(=O)c1oc2ccc(NS(=O)(=O)c3cccc(Br)c3)cc2c1C | 57 | Non-Toxic | 30.7 | 25.6 | 33.7 |  |  |  |  |  |  |  |  | 
12 | CCOC(=O)c1oc2ccc(NS(=O)(=O)c3cccc(C(F)(F)F)c3)cc2c1C | 51.4 | Non-Toxic | 28.9 | 36.3 | 30.2 |  |  |  |  |  |  |  |  | 
13 | CCOC(=O)c1oc2ccc(NS(=O)(=O)c3cccs3)cc2c1C | 92.3 | Non-Toxic | 34.3 | 45.4 | 44.1 |  |  |  |  |  |  |  |  | 
14 | CCOC(=O)c1oc2ccc(NS(=O)(=O)c3ccccc3Br)cc2c1C | 185 | Non-Toxic | 138 | 19.9 | 179 |  |  |  |  |  |  |  |  | 
15 | CCOC(=O)c1oc2ccc(NS(=O)(=O)c3ccc(C(C)(C)C)cc3)cc2c1C | 22.1 | Non-Toxic | 8.1 | 27.1 | 22.4 |  |  |  |  |  |  |  |  | 
16 | CCOC(=O)c1oc2ccc(NS(=O)(=O)c3ccccc3[N+](=O)[O-])cc2c1C | 157 | Non-Toxic | 96.9 | 24.4 | 80.4 |  |  |  |  |  |  |  |  | 
17 | CCOC(=O)c1oc2ccc(NS(=O)(=O)c3ccc(C(F)(F)F)cc3)cc2c1C | 48.7 | Non-Toxic | 27.2 | 41.7 | 24.3 |  |  |  |  |  |  |  |  | 
18 | CCOC(=O)c1oc2ccc(NS(=O)(=O)c3cccc(Cl)c3)cc2c1C | 83.9 | Non-Toxic | 53.7 | 36.6 | 57.3 |  |  |  |  |  |  |  |  | 
19 | CCOC(=O)c1oc2ccc(NS(=O)(=O)c3ccccc3C(F)(F)F)cc2c1C | 93.9 | Non-Toxic | 74.9 | 16.5 | 82.4 |  |  |  |  |  |  |  |  | 
20 | CCOC(=O)c1oc2ccc(NS(=O)(=O)c3ccccc3Cl)cc2c1C | > 200 | Non-Toxic | 137 | 20.8 | > 200 |  |  |  |  |  |  |  |  | 
21 | CCOC(=O)c1oc2ccc(NS(=O)(=O)c3ccccc3C)cc2c1C | 105 | Non-Toxic | 53.4 | 19.4 | 89.2 |  |  |  |  |  |  |  |  | 
